Patent US20240165226A1, “COMBINATION TREATMENT OF CD38-EXPRESSING TUMORS” (GENMAB A/S, priority 2006, published 2024)

Key:
[1] = test system: luciferase-transfected Daudi cells; test: Annexin-V apoptosis assay; type: cell-based; conditions: 5 μg/ml
Description: Apoptosis assay was carried out according to the manufacturer's instructions (Annexin-V Apoptosis kit, BD Biosciences, Alphen a.d. Rijn, Netherlands). In short, CD38 mAbs were added to 2.5×10^5 cells (luciferase-transfected Daudi cells, in 0.5 ml RPMI^++ in a 24-wells plate), in a concentration of 5 μg/ml -003 or -005 or an anti-CD20 antibodies alone or in the presence of cross-blocking rb-anti-hIgG (50 μg/ml).
After incubation (37° C., 5% CO2, 20 hr), cells were harvested carefully, and washed with Binding Buffer (1200 rpm, 4° C., 5 min, BD Biosciences). Pellet was resuspended in 100 μl Binding Buffer. Then, 5 μl Annexin-V-FITC (BD Biosciences) and 10 μl PI (BD Biosciences) was added to the suspension and incubated for 15 minutes at RT. 400 μl Binding Buffer was added and the samples were measured (PI readout in FL2). For analysis of apoptotic cells, all Annexin-V-positive cells were counted by flow cytometry using a FACScalibur flow cytometer with CellQuest pro software (BD Biosciences). At least 10,000 events were collected for analysis. This population includes both PI-positive as well as PI-negative cells.

[2] = test system: plasma cells in implanted synovial tissue; test: RA-SCID mouse model, synovial tissue xenografts; type: in vivo, SCID-mice; conditions: 12 mg/kg i.v. day 8, day 14
From the text: SCID-mice, strain C.B.-17/lcrCrl-SCID-bg, male/female, 4-12 weeks, purchased from Charles River Laboratories Nederland (Maastricht, the Netherlands) were kept in IVC cages under standard conditions of temperature and light, and were fed laboratory chow and water ad libitum. Prior to implantation, mice (three mice in each experimental group, day 0) were anesthetized by intraperitoneal injection of ketamine (NIMATEK, EuroVet) and xylazine (Rompun, Bayer) at ratio 1:1. A small incision of the skin was made using surgical scissors. […] On day 1 of the experiment, remaining synovial tissue was analyzed in order to check for B cells in the inflamed synovial transplants. -005 (12 mg/kg) or control antibody (anti-KLH, 30 mg/kg) was injected (i.v.), in a volume of 200 μl on day 8 of the experiment. […]
Scoring of stained synovial tissue xenografts was performed in a blinded fashion by two trained persons. […] The staining intensity in the other sections was then scored on a scale of 0 to 8, relative to the reference section.
Scoring of staining intensity was analyzed by Kruskal-Wallis one-way ANOVA followed by Dunn's multiple comparison test using Graph Pad Prism version 4.01 (Graph Pad software, Inc., San Diego, CA, USA).

wt human CD38 = molecular target: T1, wt human CD38 (Homo sapiens, UniProt P28907); test: ELISA binding to wild type HA-CD38
T1 construct: The extracellular domain of human CD38 was amplified from plasmid pCIpuroCD38; signal peptide SPHMM (N); made in house; host or cells: Freestyle 293-F (HEK-293F), transient; culture supernatant used
Description: Freestyle™ 293-F (a HEK-293 subclone adapted to suspension growth and chemically defined Freestyle medium, (HEK-293F)) cells were obtained from Invitrogen and transfected with pEE13.4HACD38 and with the three constructs carrying the mutations T237A, Q272R and S274F, according to the manufacturer's protocol using 293fectin (Invitrogen). Culture supernatants of transfected cells were used in ELISA for anti-CD38 binding studies.
Culture supernatants of transfected HEK293F cells were diluted, applied to the ELISA plates and incubated for 1 hr at RT. After washing, serial dilutions of HuMabs -003 and -005 were added and incubated for 1 hr at RT. Bound antibodies were detected with HRP-conjugated goat-anti-human IgG antibodies. The assay was developed with ABTS (Roche, #1112597) and the absorbance was measured at 405 nm using a spectrophotometer.

[3] = test system: EBV transformed chimpanzee B cells; test: Binding to EBV transformed chimpanzee B cells by flow cytometry; conditions: FITC-labeled antibody
Description: After harvesting and counting, EBV transformed chimpanzee B cells (received from Biomedical Primate Research Centre, Department Immunobiology, Rijswijk, The Netherlands) were resuspended (1×10^6 cells/ml) in PBS-BSA (PBS supplemented with 0.1% BSA and 0.02% Na-azide). Then, cells were put in 96-well V-bottom plates (100 μl/well) and washed twice in PBS-BSA. Thereafter, 50 μl FITC-labeled -005 antibody solution in PBS-BSA was added to the cells (4° C., 30 min). Cells were washed three times and specific binding of -005 to EBV transformed chimpanzee B cells was detected by flow cytometry. FITC labeled HuMab-KLH (a human monoclonal antibody against KLH (keyhole limpet haemocyanin) generated by Genmab B.V., Utrecht, The Netherlands by use of the immunization protocols described elsewhere herein) was used as a control.

-005: human monoclonal IgG1 anti-CD38 antibody, VL region SEQ ID No:12 and VH region SEQ ID No:17
induction of apoptosis ([1]; after cross-linking with rb-anti-hIgG (50 μg/ml)): less able to induce apoptosis | induction of apoptosis ([1]; without cross-linking): do not induce apoptosis | numbers of anti-CD38-positive plasma cells in xenografts [2]: reduced | numbers of plasma cells (anti-CD138 staining) in xenografts [2]: reduced numbers of plasma cells | binding to wt human CD38 (wt human CD38): bind | binding to EBV transformed chimpanzee B cells [3]: dose dependent binding
